Earlier results in patent publication US7759468B1, “Bioactive peptide-based probes” (priority 2003, dated 2010).

Test system: L. lactis ssp. lactis C2
Conditions: known / from the literature; cited from earlier work

Question: Which Inhibition of growth does the source give for Glu-Glu [Glu-Glu peptide] here?
Answer: potent inhibitor of growth
